# Measured values from patent US20260109707A1, “HETEROBIFUNCTIONAL COMPOUNDS AND METHODS OF TREATING DISEASE” (Halda Therapeutics OpCo. Inc., priority 2022, published 2026).
# Like-named read-outs stand apart in the source and are kept apart here.
# Columns and labels:
# VCaP cells = experiment: Cellular growth inhibition assay for VCaP cells (CellTiter-Glo, 72 hours); format: cell-based, human
# Outline: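 Luminescent viability signal after 72 h of compound exposure gave GI50 values by four-parameter nonlinear regression. Compounds were added in 0.5% DMSO to cells plated 24 h earlier at 5000/well in DMEM containing 10% FBS.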
# [1] = test system: T-Rex 293 cell line SC3 cells having increased expression of androgen receptor protein due to exposure to doxycycline; experiment: Cellular growth inhibition assay, T-Rex 293 SC3 cells with doxycycline (CellTiter-Glo, 72 hours); format: cell-based; conditions: T-Rex 293 SC3 cells with increased androgen receptor expression due to doxycycline (10 ng/mL)
# Outline: (§1)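 Growth inhibition is measured in an inducible AR-expressing T-Rex 293 clone, SC3, cultured with or without 10 ng/mL doxycycline in hormone-depleted medium. Test compounds are applied for 72 hours. GI50 values derive from CellTiter-Glo 2.0 signal fitted by four-parameter regression.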
# T47D cells = experiment: Cellular growth inhibition assay for T47D cells (CellTiter-Glo, 72 hours); format: cell-based, human; conditions: 72 hours treatment
# Outline: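 Luminescence from CellTiter-Glo 2.0 after 72 h of compound exposure gives the viability signal. Cells grew in insulin-supplemented (0.2 units/mL) DMEM with 10% FBS and were treated one day after seeding at 0.5% DMSO. GI50 values come from four-parameter nonlinear regression.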
# [2] = test system: T-Rex 293 cell line SC3 cells lacking increased expression of androgen receptor protein; experiment: Cellular growth inhibition assay, T-Rex 293 SC3 cells without doxycycline (CellTiter-Glo, 72 hours); format: cell-based; conditions: T-Rex 293 cell line SC3 cells not exposed to doxycycline (lacking increased androgen receptor expression)
# Outline: as §1
SMILES,"GI50 (VCaP cells; Homo sapiens, VCaP, 72 h) [nM]",GI50 ([1]; 72 h) [nM],"GI50 (T47D cells; Homo sapiens, T47D, 72 h) [nM]",GI50 ([2]; 72 h) [nM],GI50 [2] [nM],GI50 (VCaP cells) [nM],GI50 [1] [nM],GI50 (T47D cells) [nM]
Cc1sc2c(c1C)C(c1ccc([C@H]3C[C@H](C[C@@H]4CCCN(c5ccc(C(=O)N[C@H]6CC[C@H](Oc7ccc(C#N)c(Cl)c7)CC6)nn5)C4)C3)cc1)=N[C@@H](Cc1ncco1)c1nnc(C)n1-2 [I-357],< 500,< 500,< 500,< 500,–,–,–,–
Cc1sc2c(c1C)C(c1ccc(C[C@H]3CC[C@]4(C3)CN(c3ccc(C(=O)N[C@H]5CC[C@H](Oc6ccc(C#N)c(Cl)c6)CC5)nn3)CCO4)cc1)=N[C@@H](Cc1ncco1)c1nnc(C)n1-2 [I-266],< 500,< 500,< 500,< 500,–,–,–,–
Cc1sc2c(c1C)C(c1ccc(O[C@H]3CC[C@@]4(CCCN(c5ccc(C(=O)N[C@H]6CC[C@H](Oc7ccc(C#N)c(Cl)c7)CC6)nn5)C4)C3)cc1)=N[C@@H](Cc1ncco1)c1nnc(C)n1-2 [I-96],< 500,< 500,< 500,< 500,–,–,–,–
Cc1sc2c(c1C)C(c1ccc(OC3CC4(CCN(c5ccc(C(=O)N[C@H]6CC[C@H](Oc7ccc(C#N)c(Cl)c7)CC6)cc5)CC4)C3)cc1)=N[C@@H](Cc1ncco1)c1nnc(C)n1-2 [I-108],< 500,< 500,< 500,< 500,–,–,–,–
Cc1sc2c(c1C)C(c1ccc(CC3CN([C@H]4CCN(c5ccc(C(=O)N[C@H]6CC[C@H](Oc7ccc(C#N)c(Cl)c7)CC6)nn5)C4)C3)cc1)=N[C@@H](Cc1ncco1)c1nnc(C)n1-2 [I-116],< 500,< 500,< 500,< 500,–,–,–,–
Cc1sc2c(c1C)C(c1ccc(N(C)CC(=O)NCc3ccc(C(=O)N[C@H]4CC[C@H](Oc5ccc(C#N)c(Cl)c5)CC4)nn3)cc1)=N[C@@H](Cc1ncco1)c1nnc(C)n1-2 [I-332],> 3000,> 3000,> 3000,> 3000,–,–,–,–
Cc1sc2c(c1C)C(c1ccc(N3CCN(C(=O)c4ccc(C(=O)N[C@H]5CC[C@H](Oc6ccc(C#N)c(Cl)c6)CC5)nn4)CC3)cc1)=N[C@@H](Cc1ncco1)c1nnc(C)n1-2 [I-250],> 3000,< 500,500 to 1500,> 3000,–,–,–,–
Cc1sc2c(c1C)C(c1ccc(O[C@H]3C[C@@]4(CCCN(c5ccc(C(=O)N[C@H]6CC[C@H](Oc7ccc(C#N)c(Cl)c7)CC6)nn5)C4)C3)cn1)=N[C@@H](Cc1ncco1)c1nnc(C)n1-2 [I-261],< 500,< 500,< 500,< 500,–,–,–,–
Cc1sc2c(c1C)C(c1ccc(COC3(C)CC4(CN(c5ccc(C(=O)N[C@H]6CC[C@H](Oc7ccc(C#N)c(Cl)c7)CC6)nn5)C4)C3)cc1)=N[C@@H](Cc1ncco1)c1nnc(C)n1-2 [I-441],< 500,< 500,< 500,< 500,–,–,–,–
Cc1sc2c(c1C)C(c1ccc(OCC3CC4(CCCN(c5ccc(C(=O)N[C@H]6CC[C@H](Oc7ccc(C#N)c(Cl)c7)CC6)nn5)C4)C3)nc1)=N[C@@H](C)c1nnc(C)n1-2 (stereo partly drawn) [I-424],< 500,< 500,500 to 1500,–,> 3000,–,–,–
Cc1sc2c(c1C)C(c1ccc(OC3CC4(CCN(c5ccc(C(=O)N[C@H]6CC[C@H](Oc7ccc(C#N)c(Cl)c7)CC6)nn5)CC4)C3)cc1)=N[C@@H](CC(C)(C)O)c1nnc(C)n1-2 [I-245],< 500,< 500,> 3000,> 3000,–,–,–,–
Cc1sc2c(c1C)C(c1ccc(C3CC(N4CCN(c5ccc(C(=O)N[C@H]6CC[C@H](Oc7ccc(C#N)c(Cl)c7)CC6)nn5)CC4)C3)cc1)=N[C@@H](Cc1ncco1)c1nnc(C)n1-2 (stereo partly drawn) [I-437],< 500,< 500,< 500,< 500,–,–,–,–
Cc1sc2c(c1C)C(c1ccc(C[C@H]3C[C@H](C4CCCN(c5ccc(C(=O)N[C@H]6CC[C@H](Oc7ccc(C#N)c(Cl)c7)CC6)nn5)C4)C3)cc1)=N[C@@H](Cc1ncco1)c1nnc(C)n1-2 (stereo partly drawn) [I-121],> 3000,1500 to 3000,1500 to 3000,> 3000,–,–,–,–
[2H]C([2H])(c1ccc(C2=N[C@@H](Cc3ncco3)c3nnc(C)n3-c3sc(C)c(C)c32)cc1)N1CC2(CCCN(c3ccc(C(=O)N[C@H]4CC[C@H](Oc5ccc(C#N)c(Cl)c5)CC4)nn3)C2)C1 [I-390],< 500,< 500,500 to 1500,500 to 1500,–,–,–,–
Cc1sc2c(c1C)C(c1ccc(CC3CN(CC4CCN(c5ccc(C(=O)N[C@H]6CC[C@H](Oc7ccc(C#N)c(Cl)c7)CC6)nn5)CC4)C3)cc1)=N[C@@H](Cc1ncco1)c1nnc(C)n1-2 [I-113],< 500,< 500,< 500,500 to 1500,–,–,–,–
CNc1ccc2c(n1)C(c1ccc(OC3CC4(CCN(c5ccc(C(=O)N[C@H]6CC[C@H](Oc7ccc(C#N)c(Cl)c7)CC6)nn5)CC4)C3)cc1)=NCc1onc(C)c1-2 [I-106],< 500,< 500,> 3000,> 3000,–,–,–,–
Cc1sc2c(c1C)C(c1ccc(OCC[C@@H]3CCCN(c4ccc(C(=O)N[C@H]5CC[C@H](Oc6ccc(C#N)c(Cl)c6)CC5)nn4)C3)cc1)=N[C@@H](Cc1ncco1)c1nnc(C)n1-2 [I-256],< 500,< 500,< 500,< 500,–,–,–,–
Cc1sc2c(c1C)C(c1ccc(CN(C)C(=O)[C@@H]3CC[C@H](c4ccc(C(=O)N[C@H]5CC[C@H](Oc6ccc(C#N)c(Cl)c6)CC5)nn4)C3)cc1)=N[C@@H](Cc1ncco1)c1nnc(C)n1-2 [I-315],< 500,< 500,500 to 1500,> 3000,–,–,–,–
Cc1sc2c(c1C)C(c1ccc(CCC[C@H]3CCCN(c4ccc(C(=O)N[C@H]5CC[C@H](OC6CCC(C#N)C(Cl)C6)CC5)nn4)CC3)cc1)=N[C@@H](Cc1ncco1)c1nnc(C)n1-2 (stereo partly drawn) [I-395],< 500,< 500,< 500,< 500,–,–,–,–
Cc1sc2c(c1C)C(c1ccc(N3CCC4(CC3)CC(Cc3ccc(C(=O)N[C@H]5CC[C@H](Oc6ccc(C#N)c(Cl)c6)CC5)nn3)C4)cc1)=NC(Cc1ncco1)c1nnc(C)n1-2 (stereo partly drawn) [I-416],–,–,–,–,500 to 1500,< 500,< 500,< 500
Cc1sc2c(c1C)C(c1ccc(C#CC3CC4(CCN(c5ccc(C(=O)N[C@H]6CC[C@H](Oc7ccc(C#N)c(Cl)c7)CC6)nn5)CC4)C3)cc1)=N[C@@H](Cc1ncco1)c1nnc(C)n1-2 [I-139],< 500,< 500,< 500,< 500,–,–,–,–
Cc1sc2c(c1C)C(c1ccc(N(C)CC(=O)N3CCC(c4ccc(C(=O)N[C@H]5CC[C@H](Oc6ccc(C#N)c(Cl)c6)CC5)nn4)CC3)cc1)=N[C@@H](Cc1ncco1)c1nnc(C)n1-2 [I-312],> 3000,> 3000,> 3000,> 3000,–,–,–,–
Cc1sc2c(c1C)C(c1ccc(N3CCC4(CCCN(c5ccc(C(=O)N[C@H]6CC[C@H](Oc7ccc(C#N)c(Cl)c7)CC6)nn5)C4)CC3)nc1)=N[C@@H](C)c1nnc(C)n1-2 [I-428],< 500,< 500,500 to 1500,> 3000,–,–,–,–
Cc1sc2c(c1C)C(c1ccc(CC3CN([C@@H]4CCN(c5ccc(C(=O)N[C@H]6CC[C@H](Oc7ccc(C#N)c(Cl)c7)CC6)nn5)C4)C3)cc1)=N[C@@H](Cc1ncco1)c1nnc(C)n1-2 [I-115],< 500,< 500,< 500,< 500,–,–,–,–
Cc1sc2c(c1C)C(c1ccc(N3CCC(CNC(=O)c4ccc(C(=O)N[C@H]5CC[C@H](Oc6ccc(C#N)c(Cl)c6)CC5)nn4)CC3)cc1)=N[C@@H](Cc1ncco1)c1nnc(C)n1-2 [I-231],–,–,500 to 1500,–,> 3000,> 3000,> 3000,–
Cc1sc2c(c1C)C(c1ccc(-c3ccc(C4CC5(C4)CN(c4ccc(C(=O)N[C@H]6CC[C@H](Oc7ccc(C#N)c(Cl)c7)CC6)nn4)C5)cc3)cc1)=N[C@@H](Cc1ncco1)c1nnc(C)n1-2 [I-412],500 to 1500,< 500,< 500,< 500,–,–,–,–
Cc1sc2c(c1C)C(c1ccc(OC[C@H]3C[C@]4(CCCN(c5ccc(C(=O)N[C@H]6CC[C@H](Oc7ccc(C#N)c(Cl)c7)CC6)nn5)C4)C3)cn1)=N[C@@H](Cc1ncco1)c1nnc(C)n1-2 [I-339],< 500,< 500,< 500,< 500,–,–,–,–
Cc1sc2c(c1C)C(c1ccc(-c3ccc(C4CCN(c5ccc(C(=O)NC6CCC(Oc7ccc(C#N)c(Cl)c7)CC6)nn5)CC4)cc3)cc1)=N[C@@H](Cc1ncco1)c1nnc(C)n1-2 (stereo partly drawn) [I-369],< 500,> 3000,> 3000,> 3000,–,–,–,–
Cc1sc2c(c1C)C(c1ccc(O[C@@H]3CCCN(c4ccc(C(=O)N[C@H]5CC[C@H](Oc6ccc(C#N)c(Cl)c6)CC5)nn4)C3)cc1)=N[C@@H](Cc1ncco1)c1nnc(C)n1-2 [I-224],< 500,< 500,< 500,> 3000,–,–,–,–
Cc1sc2c(c1C)C(c1ccc(N3CCC(CNC(=O)c4ccc(C(=O)N[C@H]5CC[C@H](Oc6ccc(C#N)c(Cl)c6)CC5)nn4)CC3)cc1)=N[C@@H](Cc1ncco1)c1nnc(C)n1-2 [I-232],–,–,–,–,500 to 1500,< 500,< 500,< 500
